# Key:
# [1] = system: HepG2 cell; experiment: Lipid droplet content of free fat acid (FFA) induced HepG2 cell (nile red, flow detection); assay type: cell-based; details: 24 hours, geometric median of fluorescence intensity, means ± s.d., n = 3, model group 222.64 ± 8.34
# Method: Experiment method: the HepG2 cells in the logarithmic growth phase are taken having a growth density of 80%, and inoculated into 6-well plate at 1×10^5 per well. After culturing cells for 24 hours, the supernatant is discarded, and the cells are washed with PBS three times. […] Except for the blank control group, all of the other groups are added FFA having a final concentration of 1 mmol/L, and the remaining volume is completed to 2 mL with the DMEM medium containing 10% fetal bovine serum, 24 hours after administration, washed with PBS in 37° C. three times, digested by the pancreatin, centrifugated, the supernatant is discarded, the cells are resuspended with PBS, and the final concentration is adjusted to 1 μg/mL by adding nile red dye.
# [2] = system: high fat diet induced rat lipid metabolism disorder model; experiment: High fat diet induced rat lipid metabolism disorder model; assay type: in vivo, SD rat; details: 0.1 g/kg by gavage once a day, high fat feedstuff, after the eighth week
# Method: Experiment method: 90 SD rats are normally fed for 1 week, the normal group of 10 rats are fed common feedstuff, and others are fed high fat feedstuff (basic feedstuff 88%, lard 10% and cholesterol 2%). 4 weeks later, the rats fed high fat feedstuff are randomly divided into 5 groups, each group of 10. […] The rats in the bezafibrate group are fed bezafibrate 100 mg/kg at the same time as the high fat feedstuff feeding respectively. The tested sample groups are given 100 mg/kg by gavage respectively at the same time as the high fat feedstuff feeding, once a day. The experiment animals can freely drink water and take food, and are fed separately in cages in light and dark for 12 hours, respectively, in a SPF grade animal lab under 25±2° C. After the eighth week of the experiment, the rats are fasted for 16 hours, collected blood from arteria cruralis, sacrificed by dislocating the cervical vertebra, taking out the liver, and preparing serum and liver tissue homogenate in conventional method. The triglyceride (TG), total cholesterol (TC), high density lipoprotein (HDL-C), low density lipoprotein (LDL-C), glutamic-pyruvic transaminase (ALT) and glutamic-oxalacetic transaminase (AST) content in the serum and liver is detected.
# [3] = system: rat primary hepatocyte; experiment: Influence on the lipid droplet content of the rat primary hepatocyte (FFA hyperlipidemia model, nile red, flow detection); assay type: cell-based, SD rat; details: administration dose 20 μM total molar concentration; 1 mmol/L FFA; 24 hours; means ± s.d., n = 3; versus model group
# Method: The hepatocyte is taken out from the SD rat liver by using Seglen two steps in situ circulatory perfusion method, filtered through 100-mesh sieve, centrifugated for 3 min at 500 rpm and 4° C., and the supernatant is discarded, and the hepatocyte is washed three times in the same way. The number of living cells and the cell survival rate is obtained by counting the cell, and the cells are added in the plate at 1.0*10^6 cell/mL medium. The cells are cultured for 24 hours, then the supernatant is discarded, and the cells are washed with PBS three times. […] Other groups are adjusted to a final volume of 2 mL with Williams'E medium without serum, and 24 hours after administration, washed with PBS in 37° C. three times, digested by the pancreatin, centrifugated, the supernatant is discarded, the cells are resuspended with PBS, and the final concentration is adjusted to 1 μg/mL by adding nile red dye. […] Using D-Optimal experimental design method in the mixture experimental design, calculation is carried out by using response surface analysis method and using Design expert8.05b software. Choosing D-optimal in the Mixture option, analysis is carried out by entering compatible ratio of the compatible groups and the test results in Table 2.
# [4] = administration dose 20 μM, 1 mM FFA
smiles,measurement,setting,value
CC(C)(Oc1ccc(CCNC(=O)c2ccc(Cl)cc2)cc1)C(=O)O [bezafibrate],lipid droplet content,[1]; administration dose 100 μM,178.84 ± 2.84
same,Weight,[2],433.15 ± 24.53 g
same,ALT (U/L),[2]; listed under liver,107.9 ± 14.12 U/L
same,AST (U/L),[2]; listed under liver,217.8 ± 33.93 U/L
same,liver TC (mg/g liver),[2]; liver,33 ± 12.23 mg/g liver
same,liver TG (mg/g liver),[2]; liver,186 ± 37.92 mg/g liver
same,serum HDL-C,[2]; serum,1.58 ± 0.29 mmol/L
same,serum LDL-C,[2]; serum,0.54 ± 0.30 mmol/L
same,serum TC,[2]; serum,1.58 ± 0.17 mmol/L
same,serum TG,[2]; serum,0.88 ± 0.19 mmol/L
O=c1c(O[C@@H]2O[C@H](CO)[C@@H](O)[C@H](O)[C@H]2O)c(-c2ccc(O)c(O)c2)oc2cc(O)cc(O)c12 [isoquercitrin],lipid droplet content,[1]; [4],200.61 ± 8.43
same,decrease of the lipid droplet content (%),[3],7.52 ± 1.63%
O=C(O)[C@H]1O[C@@H](Oc2c(-c3ccc(O)c(O)c3)oc3cc(O)cc(O)c3c2=O)[C@H](O)[C@@H](O)[C@@H]1O [quercetin-3-O-β-D-glucuronide],lipid droplet content,[1]; [4],153.38 ± 2.88
same,decrease of the lipid droplet content (%),[3],8.07 ± 0.92%
O=c1c(O)c(-c2ccc(O)c(O)c2)oc2cc(O)cc(O)c12 [quercetin],lipid droplet content,[1]; [4],198.25 ± 6.04
same,decrease of the lipid droplet content (%),[3],7.01 ± 1.03%
